Results: patent US6890708B2, “Method for improving the quality of sperm for artificial insemination of animals” (priority 2000, dated 2005)

Key:
Format in all cases: cell-based, pig
[1] = test system: Polymorphonuclear Neutrophils (PMN); assay: In vitro phagocytosis of boar sperm by PMN (phagocytosis assay); details: for % of phagocytosed sperm: Exp. 1, preincubated 30 min. at 38° C.
Procedure: Tyrode's medium was used as described as “standard Tyrode's medium” in […] et al. ([…], Harrison, R A P, Miller, N G A, Topper, E K, and Woelders, H, 1998, Enhanced Binding of Zona Pellucida Proteins to the Acrosomal Region of Intact Boar Spermatozoa in Response to Fertilizing Conditions: A Flow Cytometric Study. […] Serum was prepared from blood collected from 11 primiparous sows, pooled, and frozen in aliquots at -80° C. Per experiment, 20 ml peripheral blood of a single Dutch Landrace sow (each experiment a different sow) was collected in heparinized vacutainers (Venoject, Omnilabo, Breda, The Netherlands). The peripheral blood was subsequently diluted with an equal volume of phosphate buffered saline (PBS). […] The supernatant, including the mononuclear cells at the interface, was removed. The pellet was resuspended in 2 ml of ice-cold distilled water to lyse the erythrocytes. […] The PMNs were pelleted by centrifugation for 10 min at 400×g and the lysis procedure was repeated. […] All cell suspensions were pooled together, mixed well, and subjected to centrifugation. The PMN were resuspended in TM-s with inactivated complement, and the cell concentration was determined using a hemocytometer. The PMN preparation was stored overnight at 4° C. […] The viability, assessed by trypan blue exclusion, was >98%. Semen was obtained from Dutch A.I. stations. Per experiment, semen was used from a single Yorkshire breeding boar (each experiment a different boar). At the AI-station, the semen was diluted to a concentration of approximately 30×10^6 cells/ml in Beltsville Thawing Solution (BTS) (Johnson et al., 1988). The diluted semen was stored at 17° C. for up to 48 hours, until the diluted semen sample was used. […] Aliquots of 80 μl of the PMN suspension (see, PMN isolation and preparation of PMNs) in TM or TM-s, with either intact or inactivated complement, were transferred to a 96-well polystyrene microtest plate. […] The samples were incubated with gentle swirling on a test plate shaker. […] The heparin facilitates dissociation of agglutinated PMNs. The samples were thoroughly mixed, left for 15 min., and mixed again. […] The frozen-thawed semen was taken from a large stock of semen from one ejaculate and washed 3 times in PBS prior to use. […] The mounts enabled observation and counting of fluorescently labeled spermatozoa inside and outside the phagocytes. By focusing at different levels in the mount, spermatozoa that were located above or below the PMN could be distinguished from those that were phagocytosed. In many PMNs that had ingested a spermatozoon, the presence of the sperm nucleus or tail caused a conspicuous change of the shape of the PMN. Two hundred spermatozoa were evaluated and classified as inside or outside the PMN (i.e., phagocytosed or not phagocytosed). The same fixed mounts were used to assess the acrosome morphology of the non-phagocytosed spermatozoa at the moment of fixation.

[2] = test system: boar spermatozoa; assay: Sperm viability in vitro (motility, acrosome morphology), Example I; details: Exp. 1; after adding active compound and pre-incubation 30 min. at 38° C.
[3] = test system: boar spermatozoa; assay: as above; details: Exp. 1
Procedure: Aliquots of 80 μl of the PMN suspension (see, PMN isolation and preparation of PMNs) in TM or TM-s, with either intact or inactivated complement, were transferred to a 96-well polystyrene microtest plate. To each well, 20 μl of sperm suspension (see, preparation of semen samples) was added and the microtest plate was placed in a humidified incubator at 38° C. with 5% CO2 in air. […] The samples were incubated with gentle swirling on a test plate shaker. After 15, 30, 45, 60 or 90 min., samples were quantitatively transferred into tubes containing an equal volume of 40 mg ml^−1 heparin (Sigma) in PBS. The heparin facilitates dissociation of agglutinated PMNs. The samples were thoroughly mixed, left for 15 min., and mixed again. Subsamples of 75 μl were fixed by addition of 25 μl of 2% (v/v) glutaraldehyde (Fluka, Brunschwig chemie, Amsterdam, The Netherlands) in PBS. “Blank” samples, i.e., sperm without PMNs (80 μl TM-s mixed with 20 μl sperm suspension), were incubated in parallel to monitor sperm survival during the treatment. “Reference” samples, i.e., frozen-thawed (killed) semen, were incubated in parallel with the PMNs as a reference for the phagocytotic activity of the PMNs. The frozen-thawed semen was taken from a large stock of semen from one ejaculate and washed 3 times in PBS prior to use.
For evaluation of phagocytosis, wet mounts of the fixed samples were examined with a combination of phase-contrast and fluorescence microscopy (Olympus BH2, Tokyo, Japan) at 400× magnification. The mounts enabled observation and counting of fluorescently labeled spermatozoa inside and outside the phagocytes. By focusing at different levels in the mount, spermatozoa that were located above or below the PMN could be distinguished from those that were phagocytosed. […] Two hundred spermatozoa were evaluated and classified as inside or outside the PMN (i.e., phagocytosed or not phagocytosed). The same fixed mounts were used to assess the acrosome morphology of the non-phagocytosed spermatozoa at the moment of fixation. One hundred cells were classified using phase-contrast microscopy at 400× magnification, as NAR (normal apical ridge), NAR' (slightly altered normal apical ridge), DAR (damaged apical ridge), MAR (missing apical ridge) and LAC (loose acrosomal cap), as described by Pursel et al. (Pursel V G, Schulman L L and Johnson L A, 1978, Distribution and morphology of fresh and frozen-thawed sperm in the reproductive tract of gilts after insemination Biology of Reproduction 19 69-76.)

[4] = after adding active compound and pre-incubation 30 min. at 38° C.
[5] = blank samples without PMN, (2x), phagocytosis time 30 min.
[6] = blank samples without PMN, preincubated 30 min. at 38° C., phagocytosis time 30 min.

Question: With `O=C(O)CN(CCN(CC(=O)O)CC(=O)O)CC(=O)O` [EDTA] as the molecule, how does the “phagocytosis of sperm by PMN in vitro, in words” value (shortened to “phagocytosis of sperm by PMN”) [1] read?
Answer: reduce phagocytosis of sperm in vitro

Question: How did the “% motile sperm” value [2] turn out when `CCCC(=O)Nc1ncnc2c1ncn2[C@@H]1O[C@@H]2COP(=O)(O)O[C@H]2[C@H]1OC(=O)CCC` [Db-cAMP, dibutyryl-cAMP] was run?
Answer: 60%

Question: And the “% of phagocytosed sperm” value ([1]; 0.1 mM, phagocytosis time 15 min)?
Answer: 35%

Question: What about the “% of phagocytosed sperm” value ([1]; 0.1 mM, phagocytosis time 30 min) of the same molecule?
Answer: 59%

Question: What about the “% of phagocytosed sperm” value ([1]; 0.1 mM, phagocytosis time 60 min) of the same molecule?
Answer: 60%

Question: What about the “% of phagocytosed sperm” value ([1]; 0.1 mM, phagocytosis time 90 min) of the same molecule?
Answer: 65%

Question: And the “% of phagocytosed sperm” value ([1]; 0.2 mM, phagocytosis time 15 min)?
Answer: 47%

Question: And the “% of phagocytosed sperm” value ([1]; 0.2 mM, phagocytosis time 30 min)?
Answer: 47%

Question: And the “% of phagocytosed sperm” value ([1]; 0.2 mM, phagocytosis time 60 min)?
Answer: 58%

Question: What about the “% of phagocytosed sperm” value ([1]; 0.2 mM, phagocytosis time 90 min) of the same molecule?
Answer: 54%

Question: And the “% DAR” value [3, 4]?
Answer: 23%

Question: And the “% LAC” value [3, 4]?
Answer: 08%

Question: What about the “% MAR” value [3, 4] of the same molecule?
Answer: 02%

Question: What about the “% NAR” value [3, 4] of the same molecule?
Answer: 67%

Question: What about the “% LAC” value [3, 5] of the same molecule?
Answer: 08%

Question: And the “% MAR (second value of NAR-MAR-MAR-LAC)” value [3, 5]?
Answer: 36%

Question: What about the “% MAR (third value of NAR-MAR-MAR-LAC)” value [3, 5] of the same molecule?
Answer: 02%

Question: What about the “% NAR” value [3, 5] of the same molecule?
Answer: 54%

Question: What about the “% LAC” value [3, 6] of the same molecule?
Answer: 06%

Question: What about the “% MAR (second value of NAR-MAR-MAR-LAC)” value [3, 6] of the same molecule?
Answer: 36%

Question: What about the “% MAR (third value of NAR-MAR-MAR-LAC)” value [3, 6] of the same molecule?
Answer: 02%

Question: And the “% NAR” value [3, 6]?
Answer: 56%

Question: How did the “phagocytosis of sperm by PMN” value [1] turn out when `Nc1ncnc2c1ncn2[C@@H]1O[C@@H]2COP(=O)(O)O[C@H]2[C@H]1O` [cAMP, cyclic Adenosine MonoPhosphate] was run?
Answer: inhibits the phagocytosis of sperm in vitro

Question: How did the “phagocytosis of sperm by PMN” value [1] turn out when heparin was run?
Answer: inhibited strongly
